From patent publication US20250101013A1, “FUNCTIONALIZED AMINOTHIAZOLES” (LEADXPRO AG, priority 2022, published 2025) come the findings set out here.

SMILES strings stand for the structures.

For orientation: EC50 means the concentration that produces a half-maximal response.

Common to all, as to assay type: cell-based
Common to all, as to details: HEK293 cells expressing recombinant human receptor

The target of one assay is human A2B receptor (Homo sapiens (Human), UniProt P29275). Nature of the assay: Intracellular cAMP functional assay (HTRF), A2B. The protocol: (§1) Compound activity in human adenosine receptors A2A, A2B, A1, and A3 was measured in this functional cellular assay using an HTRF kit (Perkin Elmer). […] Dose response curves were performed in parallel with the reference compounds. The reference compounds used for A2A, A2B, A1, and A3, were respectively NECA, ZM241385, DPCPX, MRS. 12 μl of cells were mixed with 6 μl of the test compound at increasing concentrations and then incubated 10 min. Thereafter 6 μl of the reference agonist was added at a final concentration corresponding to the historical EC80. The plates were then incubated for 30 min at room temperature. After addition of the lysis buffer and 1 hour incubation, cAMP concentrations were estimated, according to the manufacturer specification, with the HTRF kit. The results showing functional activity of embodied compounds on adenosine receptors are shown below in Table 1.
(In general: In TR-FRET formats the signal depends on donor and acceptor labels being close together.)

The next assay has as its target human A1 receptor (Homo sapiens (Human), UniProt P30542). Kind of assay: Intracellular cAMP functional assay (HTRF), A1. How it is done: as §1
The next assay concerns the target human A3 receptor (Homo sapiens (Human), UniProt P0DMS8). Nature of the assay: Intracellular cAMP functional assay (HTRF), A3. How it is done:
as §1

The target in a further assay is human A2A receptor (Homo sapiens (Human), UniProt P29274). Nature of the assay: Intracellular cAMP functional assay (HTRF), A2A. How it is done:
as §1

human A3 receptor, sequence (P0DMS8 whole entry): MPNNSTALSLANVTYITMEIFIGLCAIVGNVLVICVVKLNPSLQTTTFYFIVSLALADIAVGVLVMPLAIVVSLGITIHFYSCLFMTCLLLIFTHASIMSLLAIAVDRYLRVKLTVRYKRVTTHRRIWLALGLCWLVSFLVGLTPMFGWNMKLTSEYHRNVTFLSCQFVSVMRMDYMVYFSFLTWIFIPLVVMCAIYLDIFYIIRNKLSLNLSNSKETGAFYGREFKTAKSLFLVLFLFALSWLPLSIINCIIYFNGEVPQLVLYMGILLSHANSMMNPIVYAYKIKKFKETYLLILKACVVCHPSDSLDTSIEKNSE
human A2B receptor, sequence (P29275 whole entry): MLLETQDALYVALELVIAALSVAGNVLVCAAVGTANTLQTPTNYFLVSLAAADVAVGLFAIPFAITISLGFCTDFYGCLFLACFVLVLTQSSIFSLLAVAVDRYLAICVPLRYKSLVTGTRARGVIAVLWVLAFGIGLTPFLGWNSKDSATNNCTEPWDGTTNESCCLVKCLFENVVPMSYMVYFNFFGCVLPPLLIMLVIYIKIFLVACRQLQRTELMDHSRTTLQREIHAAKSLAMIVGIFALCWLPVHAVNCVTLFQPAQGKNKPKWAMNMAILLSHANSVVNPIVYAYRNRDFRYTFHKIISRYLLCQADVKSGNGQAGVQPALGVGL
human A1 receptor, sequence (P30542 whole entry): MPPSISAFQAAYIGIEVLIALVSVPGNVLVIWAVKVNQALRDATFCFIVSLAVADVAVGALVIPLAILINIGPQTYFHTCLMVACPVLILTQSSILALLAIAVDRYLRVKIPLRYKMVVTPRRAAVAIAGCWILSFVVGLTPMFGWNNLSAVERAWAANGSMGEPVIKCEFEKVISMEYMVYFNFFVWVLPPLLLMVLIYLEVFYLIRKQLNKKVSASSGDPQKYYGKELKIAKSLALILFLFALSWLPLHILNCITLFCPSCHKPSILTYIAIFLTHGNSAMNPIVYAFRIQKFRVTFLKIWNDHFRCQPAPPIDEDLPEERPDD
human A2A receptor, sequence (P29274 whole entry): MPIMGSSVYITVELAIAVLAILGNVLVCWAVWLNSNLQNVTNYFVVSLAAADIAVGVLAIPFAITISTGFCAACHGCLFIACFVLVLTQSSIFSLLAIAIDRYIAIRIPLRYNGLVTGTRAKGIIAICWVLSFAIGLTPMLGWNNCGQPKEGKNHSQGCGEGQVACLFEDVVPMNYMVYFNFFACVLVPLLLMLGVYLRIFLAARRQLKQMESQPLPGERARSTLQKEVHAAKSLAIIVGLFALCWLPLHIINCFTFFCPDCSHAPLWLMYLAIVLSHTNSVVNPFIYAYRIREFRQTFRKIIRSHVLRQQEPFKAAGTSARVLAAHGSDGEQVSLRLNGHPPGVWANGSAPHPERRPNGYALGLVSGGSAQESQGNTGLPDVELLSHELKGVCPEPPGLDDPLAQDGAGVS

Regarding `N#Cc1cccc(-c2nc(Nc3n[nH]c(C4CC4)n3)sc2-c2ccncc2F)c1` [Compound 2, 3-{2-[(5-cyclopropyl-1H-1,2,4-triazol-3-yl)amino]-5-(3-fluoropyridin-4-yl)-1,3-thiazol-4-yl}benzonitrile], the EC50 at human A2B receptor was 0.3 nM; on human A1 receptor, 0.78 nM; on human A3 receptor, greater than 20000 nM; at human A2A receptor it was 78.9 nM.
Turning to `Cc1cnccc1-c1sc(Nc2n[nH]c(C3CC3)n2)nc1-c1cccc(C#N)c1` [Compound 3, 3-{2-[(5-Cyclopropyl-1H-1,2,4-Triazol-3-Yl)Amino]-5-(3-Methylpyridin-4-Yl)-1,3-Thiazol-4-Yl}Benzonitrile], the EC50 was 0.38 nM on human A2B receptor, 1.8 nM at human A1 receptor, greater than 20000 nM at human A3 receptor and 119 nM at human A2A receptor.
As to `Cc1cc(-c2sc(Nc3n[nH]c(C4CC4)n3)nc2-c2cccc(C#N)c2)c(C)cn1` [Compound 4, 3-{2-[(5-Cyclopropyl-1H-1,2,4-Triazol-3-Yl)Amino]-5-(2,5-Dimethylpyridin-4-Yl)-1,3-Thiazol-4-Yl}Benzonitrile], the EC50 at human A2B receptor is 0.99 nM; at human A1 receptor it was 16.4 nM; on human A3 receptor, greater than 20000 nM; on human A2A receptor, 3890 nM.
In the case of `N#Cc1cccc(-c2nc(Nc3n[nH]c(C4CC4)n3)sc2-c2ccncc2Cl)c1` [Compound 5, 3-[5-(3-Chloropyridin-4-Yl)-2-[(5-Cyclopropyl-1H-1,2,4-Triazol-3-Yl)Amino]-1,3-Thiazol-4-Yl]Benzonitrile], the EC50 on human A2B receptor amounted to 0.76 nM; on human A1 receptor, 2.3 nM; on human A3 receptor, 2350 nM; on human A2A receptor, 478 nM.
Consider `Cc1nccc(-c2sc(Nc3n[nH]c(C4CC4)n3)nc2-c2cccc(C#N)c2)c1C` [Compound 6, 3-{2-[(5-Cyclopropyl-1H-1,2,4-Triazol-3-Yl)Amino]-5-(2,3-Dimethylpyridin-4-Yl)-1,3-Thiazol-4-Yl}Benzonitrile], for which the EC50 on human A2B receptor amounted to 0.84 nM; on human A1 receptor it was 1.2 nM; on human A3 receptor, 2060 nM; on human A2A receptor, 206 nM.
Consider `Cc1cc(-c2sc(Nc3n[nH]c(C4CC4)n3)nc2-c2cccc(C#N)c2)ccn1` [Compound 7, 3-{2-[(5-Cyclopropyl-1H-1,2,4-Triazol-3-Yl)Amino]-5-(2-Methylpyridin-4-Yl)-1,3-Thiazol-4-Yl}Benzonitrile], for which the EC50 at human A2B receptor was 1.4 nM; at human A1 receptor, 1.7 nM; at human A3 receptor, 1740 nM; at human A2A receptor it was 24.4 nM.
With `Cc1nccn1-c1sc(Nc2n[nH]c(C3CC3)n2)nc1-c1cccc(C#N)c1` [Compound 8, 3-{2-[(5-Cyclopropyl-1H-1,2,4-Triazol-3-Yl)Amino]-5-(2-Methyl-1H-Imidazol-1-Yl)-1,3-Thiazol-4-Yl}Benzonitrile], the EC50 at human A2B receptor was 2.9 nM; at human A1 receptor, 107 nM; on human A3 receptor, greater than 20000 nM; on human A2A receptor, greater than 10000 nM.
As to `Cc1nccn1-c1sc(Nc2nc[nH]n2)nc1-c1cccc(C#N)c1` [Compound 9, 3-[5-(2-Methyl-1H-Imidazol-1-Yl)-2-[(1H-1,2,4-Triazol-3-Yl)Amino]-1,3-Thiazol-4-Yl]Benzonitrile], the EC50 was 3.3 nM on human A2B receptor, 145 nM at human A1 receptor, 2350 nM at human A3 receptor and greater than 10000 nM at human A2A receptor.
For `Cc1cc(-c2sc(Nc3n[nH]c(C)n3)nc2-c2cccc(C#N)c2)c(C)cn1` [Compound 13, 3-[5-(2,5-Dimethylpyridin-4-Yl)-2-[(5-Methyl-1H-1,2,4-Triazol-3-Yl)Amino]-1,3-Thiazol-4-Yl]Benzonitrile], in that order: 2.8 nM, 65 nM, greater than 20000 nM and greater than 10000 nM.
Consider `Cc1cc(-c2sc(Nc3n[nH]c(CO)n3)nc2-c2cccc(C#N)c2)c(C)cn1` [Compound 14, 3-[5-(2,5-Dimethylpyridin-4-Yl)-2-{[5-(Hydroxymethyl)-1H-1,2,4-Triazol-3-Yl]Amino}-1,3-Thiazol-4-Yl]Benzonitrile], for which the EC50 is 3 nM at human A2B receptor, 36.1 nM at human A1 receptor, greater than 20000 nM at human A3 receptor and greater than 10000 nM on human A2A receptor.
With `CCc1nccn1-c1sc(Nc2n[nH]c(C)n2)nc1-c1cccc(C#N)c1` [Compound 16, 3-[5-(2-Ethyl-1H-Imidazol-1-Yl)-2-[(5-Methyl-1H-1,2,4-Triazol-3-Yl)Amino]-1,3-Thiazol-4-Yl]Benzonitrile], the EC50 came to 2.2 nM at human A2B receptor and 61 nM at human A2A receptor.
For `N#Cc1cccc(-c2nc(Nc3n[nH]c(C4CC4)n3)sc2-n2ccnc2CO)c1` [Compound 17, 3-{2-[(5-Cyclopropyl-1H-1,2,4-Triazol-3-Yl)Amino]-5-[2-(Hydroxymethyl)-1H-Imidazol-1-Yl]-1,3-Thiazol-4-Yl}Benzonitrile], in that order: 2.4 nM and 100 nM.
Turning to `Cc1nccn1-c1sc(Nc2n[nH]c(C3CC3)n2)nc1-c1cc(C#N)ccc1F` [Compound 18, 3-{2-[(5-Cyclopropyl-1H-1,2,4-Triazol-3-Yl)Amino]-5-(2-Methyl-1H-Imidazol-1-Yl)-1,3-Thiazol-4-Yl}-4-Fluorobenzonitrile], the EC50 was 33.4 nM at human A2B receptor and greater than 10000 nM on human A2A receptor.
On to `N#Cc1cccc(-c2nc(Nc3nc[nH]n3)sc2-n2ccnc2CO)c1` [Compound 19, 3-{5-[2-(Hydroxymethyl)-1H-Imidazol-1-Yl]-2-[(1H-1,2,4-Triazol-3-Yl)Amino]-1,3-Thiazol-4-Yl}Benzonitrile], for which the EC50 was 2.01 nM at human A2B receptor, 885 nM on human A1 receptor, greater than 3400 nM at human A3 receptor and 5760 nM at human A2A receptor.
`CCc1nc(Nc2nc(-c3cccc(C#N)c3)c(-n3ccnc3CO)s2)n[nH]1` [Compound 20, 3-{2-[(5-Ethyl-1H-1,2,4-Triazol-3-Yl)Amino]-5-[2-(Hydroxymethyl)-1H-Imidazol-1-Yl]-1,3-Thiazol-4-Yl}Benzonitrile]: the EC50 at human A2B receptor was 1.26 nM; at human A1 receptor, 360 nM; on human A3 receptor it was greater than 30000 nM; on human A2A receptor it was 3410 nM.
In the case of `Cc1nc(Nc2nc(-c3cccc(C#N)c3)c(-n3ccnc3CO)s2)n[nH]1` [Compound 21, 3-{5-[2-(Hydroxymethyl)-1H-Imidazol-1-Yl]-2-[(5-Methyl-1H-1,2,4-Triazol-3-Yl)Amino]-1,3-Thiazol-4-Yl}Benzonitrile], the EC50 at human A2B receptor is 1.64 nM; on human A1 receptor, greater than 30000 nM; on human A3 receptor, greater than 30000 nM; on human A2A receptor, 6980 nM.
Regarding `Cc1cnccc1-c1sc(Nc2nc[nH]n2)nc1-c1cccc(C#N)c1` [Compound 22, 3-{5-(3-Methylpyridin-4-Yl)-2-[(1H-1,2,4-Triazol-3-Yl)Amino]-1,3-Thiazol-4-Yl}Benzonitrile], the EC50 at human A2B receptor is 0.6 nM; on human A1 receptor, 2.3 nM; at human A3 receptor, greater than 30000 nM.
In the same order, the values of `Cc1cnncc1-c1sc(Nc2n[nH]c(C3CC3)n2)nc1-c1cccc(C#N)c1` [Compound 23, 3-{2-[(5-Cyclopropyl-1H-1,2,4-Triazol-3-Yl)Amino]-5-(5-Methylpyridazin-4-Yl)-1,3-Thiazol-4-Yl}Benzonitrile] are 6.7 nM, 115 nM and greater than 30000 nM.
In the same order, the values of `N#Cc1cccc(-c2nc(Nc3n[nH]c(C4CC4)n3)sc2-c2ccncn2)c1` [Compound 24, 3-{2-[(5-Cyclopropyl-1H-1,2,4-Triazol-3-Yl)Amino]-5-(Pyrimidin-4-Yl)-1,3-Thiazol-4-Yl}Benzonitrile] are 2.3 nM, 24.1 nM and greater than 30000 nM.
Regarding `N#Cc1cccc(-c2nc(Nc3n[nH]c(C4CC4)n3)sc2-c2ccnnc2)c1` [Compound 25, 3-{2-[(5-Cyclopropyl-1H-1,2,4-Triazol-3-Yl)Amino]-5-(Pyridazin-4-Yl)-1,3-Thiazol-4-Yl}Benzonitrile], the EC50 at human A2B receptor is 2.4 nM; on human A1 receptor, 2.6 nM; on human A3 receptor it was greater than 30000 nM.
In the same order, the values of `N#Cc1cccc(-c2nc(Nc3n[nH]c(C4CC4)n3)sc2-c2ccncc2)c1` [Compound 26, 3-{2-[(5-Cyclopropyl-1H-1,2,4-Triazol-3-Yl)Amino]-5-(Pyridin-4-Yl)-1,3-Thiazol-4-Yl}Benzonitrile] are 0.7 nM, 0.8 nM and greater than 30000 nM.
For `Cc1cncnc1-c1sc(Nc2n[nH]c(C3CC3)n2)nc1-c1cccc(C#N)c1` [Compound 27, 3-{2-[(5-Cyclopropyl-1H-1,2,4-Triazol-3-Yl)Amino]-5-(5-Methylpyrimidin-4-Yl)-1,3-Thiazol-4-Yl}Benzonitrile], the EC50 at human A2B receptor was 1.7 nM; on human A1 receptor, 20.7 nM; at human A3 receptor, greater than 30000 nM.
As for `Cn1cc(-c2sc(Nc3n[nH]c(C4CC4)n3)nc2-c2cccc(C#N)c2)ccc1=O` [Compound 29, 3-{2-[(5-Cyclopropyl-1H-1,2,4-Triazol-3-Yl)Amino]-5-(1-Methyl-6-Oxo-1,6-Dihydropyridin-3-Yl)-1,3-Thiazol-4-Yl}Benzonitrile], the EC50 on human A2B receptor was 0.4 nM; on human A1 receptor it was 4.8 nM; at human A3 receptor, greater than 30000 nM; on human A2A receptor, 1.1 nM.
